{
  "source": "paper PMC6572064",
  "about": "“Discovery of 2-(1-(3-(4-Chloroxyphenyl)-3-oxo- propyl)pyrrolidine-3-yl)-1H-benzo[d]imidazole-4-carboxamide: A Potent Poly(ADP-ribose) Polymerase (PARP) Inhibitor for Treatment of Cancer” (Molecules, 2019)",
  "key": {"PARP-2": {"target": "T1, PARP-2 (Homo sapiens, UniProt Q9UGN5)", "T1 construct": "purchased BPS Bioscience 80552", "T1 sequence (Q9UGN5 whole entry)": "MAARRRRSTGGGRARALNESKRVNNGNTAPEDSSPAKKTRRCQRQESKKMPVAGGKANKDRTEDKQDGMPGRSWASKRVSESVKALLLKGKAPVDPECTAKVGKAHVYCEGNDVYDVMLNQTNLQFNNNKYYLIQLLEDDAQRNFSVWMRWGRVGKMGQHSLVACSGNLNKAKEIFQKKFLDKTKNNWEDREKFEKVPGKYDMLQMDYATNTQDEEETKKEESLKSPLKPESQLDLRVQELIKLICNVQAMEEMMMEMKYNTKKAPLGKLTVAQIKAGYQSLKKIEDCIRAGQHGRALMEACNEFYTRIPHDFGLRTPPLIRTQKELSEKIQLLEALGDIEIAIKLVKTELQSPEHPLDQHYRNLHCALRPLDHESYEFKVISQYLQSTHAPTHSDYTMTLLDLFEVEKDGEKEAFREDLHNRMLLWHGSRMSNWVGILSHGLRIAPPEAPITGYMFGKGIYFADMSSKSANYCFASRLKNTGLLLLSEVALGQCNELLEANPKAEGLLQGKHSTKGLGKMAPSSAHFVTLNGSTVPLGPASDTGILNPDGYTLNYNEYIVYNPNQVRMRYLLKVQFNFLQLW", "assay": "PARP-2 inhibition assay (PARP-2 Chemiluminescent Assay Kit, BPS Bioscience)", "type": "biochemical", "conditions": "for inhibition at 0.01 µM: 10 nM compound", "description": "(§1) The PARP-1 and PARP-2 inhibition assays were performed in outsourcing, by a CRO company, Shanghai Medicilon Inc. (Shanghai, China). […] Briefly, PARP-1 or PARP-2 biotinylated substrate was incubated with compounds or solvent control at varying concentrations and an assay buffer containing the PARP-1 or PARP-2 enzyme."}, "PARP-1": {"target": "T2, PARP-1 (Homo sapiens, UniProt P09874)", "T2 construct": "purchased BPS Bioscience 80569", "T2 sequence (P09874 whole entry)": "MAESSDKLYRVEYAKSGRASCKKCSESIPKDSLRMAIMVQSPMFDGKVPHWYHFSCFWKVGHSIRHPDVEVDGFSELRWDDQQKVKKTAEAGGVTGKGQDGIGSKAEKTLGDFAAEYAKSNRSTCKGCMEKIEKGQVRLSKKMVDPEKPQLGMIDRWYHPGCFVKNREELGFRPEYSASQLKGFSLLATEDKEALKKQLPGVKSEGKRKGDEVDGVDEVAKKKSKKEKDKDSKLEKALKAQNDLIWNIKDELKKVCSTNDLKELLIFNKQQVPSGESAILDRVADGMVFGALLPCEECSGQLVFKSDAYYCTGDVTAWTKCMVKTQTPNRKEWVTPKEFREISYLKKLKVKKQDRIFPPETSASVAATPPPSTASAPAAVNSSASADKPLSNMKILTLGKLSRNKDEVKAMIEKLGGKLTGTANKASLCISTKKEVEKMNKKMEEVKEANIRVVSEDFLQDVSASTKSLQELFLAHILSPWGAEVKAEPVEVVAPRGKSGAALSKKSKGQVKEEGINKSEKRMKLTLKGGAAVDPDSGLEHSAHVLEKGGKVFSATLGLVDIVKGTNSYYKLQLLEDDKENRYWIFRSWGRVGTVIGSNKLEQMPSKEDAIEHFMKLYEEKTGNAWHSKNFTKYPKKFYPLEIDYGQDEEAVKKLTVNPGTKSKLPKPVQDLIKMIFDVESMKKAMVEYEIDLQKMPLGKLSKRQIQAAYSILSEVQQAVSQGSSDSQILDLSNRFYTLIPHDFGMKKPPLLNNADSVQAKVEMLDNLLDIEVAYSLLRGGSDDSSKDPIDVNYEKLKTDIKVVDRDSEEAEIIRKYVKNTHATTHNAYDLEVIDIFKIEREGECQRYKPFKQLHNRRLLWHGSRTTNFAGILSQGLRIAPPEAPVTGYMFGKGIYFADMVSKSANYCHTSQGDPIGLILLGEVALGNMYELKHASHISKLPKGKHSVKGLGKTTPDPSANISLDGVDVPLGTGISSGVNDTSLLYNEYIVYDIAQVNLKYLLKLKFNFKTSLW", "assay": "PARP-1 inhibition assay (PARP-1 Chemiluminescent Assay Kit, BPS Bioscience)", "type": "biochemical", "conditions": "for inhibition at 0.01 µM: 10 nM compound", "description": "as §1"}, "[1]": {"system": "MDA-MB-436 (a BRCA-1-mutated breast cancer cell line)", "assay": "Cell proliferation assay, three-day, CellTiter-Glo, MDA-MB-436", "type": "cell-based", "conditions": "for inhibition at 0.00508 µM: MDA-MB-436, MDA-MB-436, Conc. 0.00508 uM; for inhibition at 0.0152 µM: MDA-MB-436, MDA-MB-436, Conc. 0.0152 uM; for inhibition at 0.0457 µM: MDA-MB-436, MDA-MB-436, Conc. 0.0457 uM; for inhibition at 0.41 µM: MDA-MB-436, MDA-MB-436, Conc. 0.41 uM; for inhibition at 1.23 µM: MDA-MB-436, MDA-MB-436, Conc. 1.23 uM; for inhibition at 3.7 µM: MDA-MB-436, MDA-MB-436, Conc. 3.70 uM; for inhibition at 11.11 µM: MDA-MB-436, MDA-MB-436, Conc. 11.11 uM; for inhibition at 33.33 µM: MDA-MB-436, MDA-MB-436, Conc. 33.33 uM; for inhibition at 100 µM: MDA-MB-436, MDA-MB-436, Conc. 100.00 uM", "how_it_was_run": "(§2)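 Luminescent ATP read-out (CellTiter-Glo, 60 min at room temperature) quantified viability after a 72 h compound exposure at 37 °C, 5% CO2. Compounds, diluted from DMSO stocks into growth medium, were added to cells plated the previous day.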"}, "[2]": {"system": "CAPAN-1 (a BRCA-2-mutated pancreatic cancer cell line)", "assay": "Cell proliferation assay, three-day, CellTiter-Glo, CAPAN-1", "type": "cell-based", "conditions": "for inhibition at 0.00508 µM: CAPAN-1, 0.00508 uM; for inhibition at 0.0152 µM: CAPAN-1, 0.0152 uM; for inhibition at 0.0457 µM: CAPAN-1, 0.0457 uM; for inhibition at […]: CAPAN-1, 0.14 uM; for inhibition at 0.41 µM: CAPAN-1, 0.41 uM; for inhibition at 1.23 µM: CAPAN-1, 1.23 uM; for inhibition at 3.7 µM: CAPAN-1, 3.70 uM; for inhibition at 11.11 µM: CAPAN-1, 11.11 uM; for inhibition at 33.33 µM: CAPAN-1, 33.33 uM; for inhibition at 100 µM: CAPAN-1, 100.00 uM", "how_it_was_run": "as §2"}, "[3]": {"conditions": "Homo sapiens, replicate 1, read-out: Inh % 1"}, "[4]": {"conditions": "Homo sapiens, replicate 2, read-out: Inh % 2"}},
  "note": "pIC50: −log10 of the molar value. Read-outs that look alike come from different tables or passages of the source.",
  "data": [
    {"smiles": "COc1ccc(C(=O)CCN2CCC(c3nc4c(C(N)=O)cccc4[nH]3)C2)cc1", "note": "(centres unmarked) [Compound 5ci, 2-(1-(3-(4-Methoxyphenyl)-3-oxopropyl)pyrrolidin-3-yl)-1H-benzo[d]imidazole-4-carboxamide]", "values": [
      {"measurement": "inhibition at 0.01 µM", "setting": "PARP-2; supplement sheet, read-out: 10 nM inhibition% PAPR-2", "value": 62.5, "unit": "%"},
      {"measurement": "inhibition at 0.01 µM", "setting": "PARP-2; read-out: PARP-2 Inhibition % (10 nM)", "value": 62.5, "unit": "%"},
      {"measurement": "pIC50", "setting": "PARP-2; read-out: PARP-2 IC50", "value": 8.35},
      {"measurement": "pIC50", "setting": "PARP-2; supplement sheet, read-out: IC50 PAPR-2", "value": 8.34},
      {"measurement": "inhibition at 0.01 µM", "setting": "PARP-1; supplement sheet, read-out: 10 nM inhibition% PAPR-1", "value": 59.2, "unit": "%"},
      {"measurement": "inhibition at 0.01 µM", "setting": "PARP-1; read-out: PARP-1 Inhibition % (10 nM)", "value": 59.2, "unit": "%"},
      {"measurement": "pIC50", "setting": "PARP-1; read-out: PARP-1 IC50", "value": 8.23},
      {"measurement": "pIC50", "setting": "PARP-1; supplement sheet, read-out: IC50 PAPR-1", "value": 8.23},
      {"measurement": "inhibition at 0.00508 µM", "setting": "[1]; [3]", "value": -3.7, "unit": "%"},
      {"measurement": "inhibition at 0.00508 µM", "setting": "[1]; [4]", "value": -7.9, "unit": "%"},
      {"measurement": "inhibition at 0.0152 µM", "setting": "[1]; [3]", "value": -0.252, "unit": "%"},
      {"measurement": "inhibition at 0.0152 µM", "setting": "[1]; [4]", "value": -7.1, "unit": "%"},
      {"measurement": "inhibition at 0.0457 µM", "setting": "[1]; [3]", "value": -8.5, "unit": "%"},
      {"measurement": "inhibition at 0.0457 µM", "setting": "[1]; [4]", "value": -13.5, "unit": "%"},
      {"measurement": "inhibition at 0.41 µM", "setting": "[1]; [3]", "value": -19.2, "unit": "%"},
      {"measurement": "inhibition at 0.41 µM", "setting": "[1]; [4]", "value": -15.9, "unit": "%"},
      {"measurement": "inhibition at 1.23 µM", "setting": "[1]; [3]", "value": -9.5, "unit": "%"},
      {"measurement": "inhibition at 1.23 µM", "setting": "[1]; [4]", "value": -17.4, "unit": "%"},
      {"measurement": "inhibition at 3.7 µM", "setting": "[1]; [3]", "value": -10.7, "unit": "%"},
      {"measurement": "inhibition at 3.7 µM", "setting": "[1]; [4]", "value": -17.4, "unit": "%"},
      {"measurement": "inhibition at 11.11 µM", "setting": "[1]; [3]", "value": -13.6, "unit": "%"},
      {"measurement": "inhibition at 11.11 µM", "setting": "[1]; [4]", "value": -15.6, "unit": "%"},
      {"measurement": "inhibition at 33.33 µM", "setting": "[1]; [3]", "value": 7.8, "unit": "%"},
      {"measurement": "inhibition at 33.33 µM", "setting": "[1]; [4]", "value": 1.7, "unit": "%"},
      {"measurement": "inhibition at 100 µM", "setting": "[1]; [3]", "value": 89.3, "unit": "%"},
      {"measurement": "inhibition at 100 µM", "setting": "[1]; [4]", "value": 86.7, "unit": "%"},
      {"measurement": "pIC50", "setting": "[1]; Homo sapiens, MDA-MB-436, 72 h, CellTiter-Glo, read-out: MDA-MB-436 IC50", "value": 4.41},
      {"measurement": "pIC50", "setting": "[1]; Homo sapiens, MDA-MB-436, 72 h, supplement Summary sheet, read-out: IC50", "value": 4.41},
      {"measurement": "IC50", "setting": "[1]; Homo sapiens, MDA-MB-436, curve fit list, no unit in the cell, concentration in uM, read-out: IC50", "value": 38.6, "unit": "µM"},
      {"measurement": "LogIC50", "setting": "[1]; MDA-MB-436, curve fit on Log (uM) concentrations", "value": "~ 1.587"},
      {"measurement": "Bottom", "setting": "[1]; MDA-MB-436, curve fit parameter (Inh %)", "value": -11.35},
      {"measurement": "Top", "setting": "[1]; MDA-MB-436, curve fit parameter (Inh %), '= 100.0' is a constrained value", "value": 88},
      {"measurement": "LogIC50", "setting": "[2]; CAPAN-1, curve-fit output, Log (uM)", "value": 1.682},
      {"measurement": "pIC50", "setting": "[2]; Homo sapiens, CAPAN-1, 72 h, CellTiter-Glo, read-out: CAPAN-1 IC50", "value": 4.32},
      {"measurement": "inhibition at 0.00508 µM", "setting": "[2]; [3]", "value": 3.5, "unit": "%"},
      {"measurement": "inhibition at 0.00508 µM", "setting": "[2]; [4]", "value": -8.1, "unit": "%"},
      {"measurement": "inhibition at 0.0152 µM", "setting": "[2]; [3]", "value": 3.7, "unit": "%"},
      {"measurement": "inhibition at 0.0152 µM", "setting": "[2]; [4]", "value": 5.2, "unit": "%"},
      {"measurement": "inhibition at 0.0457 µM", "setting": "[2]; [3]", "value": 2.3, "unit": "%"},
      {"measurement": "inhibition at 0.0457 µM", "setting": "[2]; [4]", "value": -3.2, "unit": "%"},
      {"measurement": "inhibition at […]", "setting": "[2]; [3]", "value": 7.9, "unit": "%"},
      {"measurement": "inhibition at […]", "setting": "[2]; [4]", "value": 5.4, "unit": "%"},
      {"measurement": "inhibition at 0.41 µM", "setting": "[2]; [3]", "value": 9.3, "unit": "%"},
      {"measurement": "inhibition at 0.41 µM", "setting": "[2]; [4]", "value": -5.7, "unit": "%"},
      {"measurement": "inhibition at 1.23 µM", "setting": "[2]; [3]", "value": -11.8, "unit": "%"},
      {"measurement": "inhibition at 1.23 µM", "setting": "[2]; [4]", "value": -10.7, "unit": "%"},
      {"measurement": "inhibition at 3.7 µM", "setting": "[2]; [3]", "value": 0.241, "unit": "%"},
      {"measurement": "inhibition at 3.7 µM", "setting": "[2]; [4]", "value": -0.2, "unit": "%"},
      {"measurement": "inhibition at 11.11 µM", "setting": "[2]; [3]", "value": 6, "unit": "%"},
      {"measurement": "inhibition at 11.11 µM", "setting": "[2]; [4]", "value": -3.5, "unit": "%"},
      {"measurement": "inhibition at 33.33 µM", "setting": "[2]; [3]", "value": 27.1, "unit": "%"},
      {"measurement": "inhibition at 33.33 µM", "setting": "[2]; [4]", "value": 18.7, "unit": "%"},
      {"measurement": "inhibition at 100 µM", "setting": "[2]; [3]", "value": 85.7, "unit": "%"},
      {"measurement": "inhibition at 100 µM", "setting": "[2]; [4]", "value": 75.3, "unit": "%"},
      {"measurement": "pIC50", "setting": "[2]; Homo sapiens, CAPAN-1, 72 h, supplement Summary sheet, read-out: IC50", "value": 4.32},
      {"measurement": "IC50", "setting": "[2]; Homo sapiens, CAPAN-1, curve-fit output, concentrations in uM, read-out: IC50", "value": 48.1, "unit": "µM"}
    ]}
  ]
}
